Source: publication PMC5983452 (PLoS ONE, 2018)
Structures can show the parent of a compound that is named as a salt. Where two headings read alike, the source gives them in different places.

Test system: panel of 240 cancer cell lines
Test: Proliferation in a broad panel of 240 cancer cell lines, 2D culture (Eurofins Panlabs Oncopanel)
Type: cell-based
Conditions: read-out: IC50
Protocol: Cell lines used in these experiments were obtained from the following sources and were cultured according to conditions specified by the respective cell banks. […] The cell lines listed above were tested for mycoplasma and were negative. Cells were authenticated by STR method or vendor protocols. All 313 cell lines in the CRIPSR pooled screen were purchased from commercial vendors and were STR authenticated and mycoplasma negative. A broad panel of cancer cell lines was screened in the Eurofins Oncopanel. All cells in this panel were mycoplasma negative and STR verified.

Structure (SMILES): NC1CCC(S(=O)(=O)N2C3CCC2CC(NC(=O)c2cc(C4CC4)on2)C3)CC1 [EPZ028862, N-((1R,3R,5S)-8-((1r,4R)-4-aminocyclohexylsulfonyl)-8-aza-bicyclo[3.2.1]octan-3-yl)-5-cyclopropylisoxazole-3-carboxamide hydrochloride]
- IC50 (5637, Bladder): > 25 µM
- IC50 (A7, Skin): > 25 µM
- IC50 (AGS, Colon/GI): > 25 µM
- IC50 (BC-1, Haematopoietic and lymphoid): > 25 µM
- IC50 (BM-1604, BM-1604, Prostate): > 25 µM
- IC50 (C32, Skin): > 25 µM
- IC50 (C32TG, Skin): > 25 µM
- IC50 (C-4 I, Female GU): > 25 µM
- IC50 (CEM/C1, CEM-C1, Haematopoietic and lymphoid): > 25 µM
- IC50 (CML-T1, CML-T1, Haematopoietic and lymphoid): > 25 µM
- IC50 (DB, Haematopoietic and lymphoid): > 25 µM
- IC50 (DK-MG, CNS): > 25 µM
- IC50 (EB-3, Haematopoietic and lymphoid): > 25 µM
- IC50 (EM-2, Haematopoietic and lymphoid): > 25 µM
- IC50 (ES-2, Female GU): > 25 µM
- IC50 (H4, CNS): > 25 µM
- IC50 (HLE, Liver): > 25 µM
- IC50 (HLF, Liver): > 25 µM
- IC50 (HOS, Soft Tissue): > 25 µM
- IC50 (HT, Haematopoietic and lymphoid): > 25 µM
- IC50 (HT-3, Female GU): > 25 µM
- IC50 (HUH-6-clone5, HUH-6 Clone 5, Liver): > 25 µM
- IC50 (Homo sapiens, 22Rv1, 22Rv1, Prostate): > 25 µM
- IC50 (Homo sapiens, 639-V, Bladder): > 25 µM
- IC50 (Homo sapiens, 647-V, Bladder): > 25 µM
- IC50 (Homo sapiens, 769-P, Kidney): > 25 µM
- IC50 (Homo sapiens, 786-0, 786-O, Kidney): > 25 µM
- IC50 (Homo sapiens, A101D, Skin): > 25 µM
- IC50 (Homo sapiens, A 172, A172, CNS): > 25 µM
- IC50 (Homo sapiens, A204, A204, Soft Tissue): > 25 µM
- IC50 (Homo sapiens, A498, A498, Kidney): > 25 µM
- IC50 (Homo sapiens, A549, A549, Lung): > 25 µM
- IC50 (Homo sapiens, A673, A-673, Soft Tissue): > 25 µM
- IC50 (Homo sapiens, A-375, A375, Skin): > 25 µM
- IC50 (Homo sapiens, A-427, A427, Lung): > 25 µM
- IC50 (Homo sapiens, A-431, A431, Skin): > 25 µM
- IC50 (Homo sapiens, ACHN, Kidney): > 25 µM
- IC50 (Homo sapiens, AN3-CA, AN3 CA, Female GU): > 25 µM
- IC50 (Homo sapiens, ARH-77, ARH-77, Haematopoietic and lymphoid): > 25 µM
- IC50 (Homo sapiens, ASPC1, AsPC-1, Pancreas): > 25 µM
- IC50 (Homo sapiens, AU565, AU565, Breast): > 25 µM
- IC50 (Homo sapiens, BE(2)-C, BE(2)C, CNS): > 25 µM
- IC50 (Homo sapiens, BFTC-905, BFTC-905, Bladder): > 25 µM
- IC50 (Homo sapiens, BHT-101, BHT-101, Endocrine): > 25 µM
- IC50 (Homo sapiens, BPH-1, BPH1, Prostate): > 25 µM
- IC50 (Homo sapiens, BT-20, BT20, Breast): > 25 µM
- IC50 (Homo sapiens, BT-474, BT474, Breast): > 25 µM
- IC50 (Homo sapiens, BT-549, BT-549, Breast): > 25 µM
- IC50 (Homo sapiens, BV-173, BV-173, Haematopoietic and lymphoid): > 25 µM
- IC50 (Homo sapiens, BXPC-3, BxPC-3, Pancreas): > 25 µM
- IC50 (Homo sapiens, BeWo, Female GU): > 25 µM
- IC50 (Homo sapiens, C-4-II, C-4 II, Female GU): > 25 µM
- IC50 (Homo sapiens, C-33-A, C-33A, Female GU): > 25 µM
- IC50 (Homo sapiens, CAKI-1, Caki-1, Kidney): > 25 µM
- IC50 (Homo sapiens, CAKI-2, Caki-2, Kidney): > 25 µM
- IC50 (Homo sapiens, CAL-27, Cal 27, Head and Neck): > 25 µM
- IC50 (Homo sapiens, CAL-62, CAL-62, Endocrine): > 25 µM
- IC50 (Homo sapiens, CAMA-1, CAMA-1, Breast): > 25 µM
- IC50 (Homo sapiens, CAPAN-1, Capan-1, Pancreas): > 25 µM
- IC50 (Homo sapiens, CCF-STTG1, CCF-STTG1, CNS): > 25 µM
- IC50 (Homo sapiens, CCRF-CEM, CCRFCEM, Haematopoietic and lymphoid): > 25 µM
- IC50 (Homo sapiens, CFPAC-1, CFPAC-1, Pancreas): > 25 µM
- IC50 (Homo sapiens, CGTH-W-1, CGTH-W-1, Endocrine): > 25 µM
- IC50 (Homo sapiens, CHL-1, CHL-1, Skin): > 25 µM
- IC50 (Homo sapiens, CHP-212, CHP-212, CNS): > 25 µM
- IC50 (Homo sapiens, COLO 201, Colo 201, Colon/GI): > 25 µM
- IC50 (Homo sapiens, COLO 205, Colo 205, Colon/GI): > 25 µM
- IC50 (Homo sapiens, COLO 320DM, Colon/GI): > 25 µM
- IC50 (Homo sapiens, COLO-320-HSR, Colo 320 HSR, Colon/GI): > 25 µM
- IC50 (Homo sapiens, COLO-829, COLO 829, Skin): > 25 µM
- IC50 (Homo sapiens, COR-L23, COR-L23, Lung): > 25 µM
- IC50 (Homo sapiens, COR-L105, COR-L105, Lung): > 25 µM
- IC50 (Homo sapiens, CRO-AP2, CRO-AP2, Haematopoietic and lymphoid): > 25 µM
- IC50 (Homo sapiens, Calu-1, Calu1, Lung): > 25 µM
- IC50 (Homo sapiens, Calu-6, Calu6, Lung): > 25 µM
- IC50 (Homo sapiens, Caov-3, CaOV3, Female GU): > 25 µM
- IC50 (Homo sapiens, Capan-2, Capan-2, Pancreas): > 25 µM
- IC50 (Homo sapiens, ChaGo-K-1, ChaGoK1, Lung): > 25 µM
- IC50 (Homo sapiens, D283 Med, CNS): > 25 µM
- IC50 (Homo sapiens, DBTRG-05MG, CNS): > 25 µM
- IC50 (Homo sapiens, DLD-1, DLD-1, Colon/GI): > 25 µM
- IC50 (Homo sapiens, DMS-53, DMS53, Lung): > 25 µM
- IC50 (Homo sapiens, DMS-114, DMS114, Lung): > 25 µM
- IC50 (Homo sapiens, DMS-273, DMS273, Lung): > 25 µM
- IC50 (Homo sapiens, DOHH-2, DOHH-2, Haematopoietic and lymphoid): 8.66 µM
- IC50 (Homo sapiens, DU-145, DU145, Prostate): > 25 µM
- IC50 (Homo sapiens, Daoy, CNS): > 25 µM
- IC50 (Homo sapiens, Daudi, Haematopoietic and lymphoid): > 25 µM
- IC50 (Homo sapiens, Detroit 562, Detroit 562, Head and Neck): > 25 µM
- IC50 (Homo sapiens, DoTc2-4510, DoTc2 4510, Female GU): > 25 µM
- IC50 (Homo sapiens, EFM-19, EFM-19, Breast): > 25 µM
- IC50 (Homo sapiens, FaDu, Head and Neck): > 25 µM
- IC50 (Homo sapiens, G-401, G-401, Kidney): > 25 µM
- IC50 (Homo sapiens, G-402, G-402, Kidney): > 25 µM
- IC50 (Homo sapiens, HCT-8, HCT-8, Colon/GI): > 25 µM
- IC50 (Homo sapiens, HCT-15, HCT-15, Colon/GI): > 25 µM
- IC50 (Homo sapiens, HCT-116, HCT-116, Colon/GI): > 25 µM
- IC50 (Homo sapiens, HEC-1-A, Female GU): > 25 µM
- IC50 (Homo sapiens, HEL 92.1.7, HEL-92-1-7, Haematopoietic and lymphoid): > 25 µM
- IC50 (Homo sapiens, HMCB, Skin): > 25 µM
- IC50 (Homo sapiens, HPAF-II, Pancreas): > 25 µM
- IC50 (Homo sapiens, HT1197, HT-1197, Bladder): > 25 µM
- IC50 (Homo sapiens, HT-29, HT-29, Colon/GI): > 25 µM
- IC50 (Homo sapiens, HT-1080, HT-1080, Soft Tissue): > 25 µM
- IC50 (Homo sapiens, HT-1376, HT1376, Bladder): > 25 µM
- IC50 (Homo sapiens, HeLa, Female GU): > 25 µM
- IC50 (Homo sapiens, HepG2, HepG2, Liver): > 25 µM
- IC50 (Homo sapiens, Hs 294T, Skin): > 25 µM
- IC50 (Homo sapiens, Hs 695T, Skin): > 25 µM
- IC50 (Homo sapiens, Hs746T, HS 746T, Colon/GI): > 25 µM
- IC50 (Homo sapiens, Hs-578T, Hs 578T, Breast): > 25 µM
- IC50 (Homo sapiens, HuCCT-1, HuCCT1, Liver): > 25 µM
- IC50 (Homo sapiens, HuP-T4, HuP-T4, Pancreas): > 25 µM
- IC50 (Homo sapiens, J-RT3-T3-5, J-RT3-T3-5, Haematopoietic and lymphoid): > 25 µM
- IC50 (Homo sapiens, JEG-3, JEG-3, Female GU): > 25 µM
- IC50 (Homo sapiens, Jurkat, Haematopoietic and lymphoid): > 25 µM
- IC50 (Homo sapiens, K562, K562, Haematopoietic and lymphoid): > 25 µM
- IC50 (Homo sapiens, KATO III, Colon/GI): > 25 µM
- IC50 (Homo sapiens, L-428, L-428, Haematopoietic and lymphoid): > 25 µM
- IC50 (Homo sapiens, LNCaP, Prostate): > 25 µM
